This passage reports IC50 results from PMC7094550 (Experimental Parasitology, 2017).

Each structure is given as a SMILES string.

For the assay, the target named is T1, Leishmania donovani HMG-CoA reductase (LdHMGR) (Leishmania donovani, UniProt A0A3S7X3U0).
T1 sequence (A0A3S7X3U0 1-434): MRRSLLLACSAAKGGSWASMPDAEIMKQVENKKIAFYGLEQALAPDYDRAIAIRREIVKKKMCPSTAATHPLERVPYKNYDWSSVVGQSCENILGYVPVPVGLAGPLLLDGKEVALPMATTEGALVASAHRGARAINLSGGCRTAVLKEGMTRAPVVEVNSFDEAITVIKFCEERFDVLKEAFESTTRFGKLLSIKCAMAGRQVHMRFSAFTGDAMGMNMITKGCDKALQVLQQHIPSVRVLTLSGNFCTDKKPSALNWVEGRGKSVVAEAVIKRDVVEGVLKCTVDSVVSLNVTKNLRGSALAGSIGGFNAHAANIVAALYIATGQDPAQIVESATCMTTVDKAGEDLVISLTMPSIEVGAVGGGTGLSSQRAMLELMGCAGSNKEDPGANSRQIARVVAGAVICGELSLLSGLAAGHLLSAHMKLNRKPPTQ
Put plainly: NADPH oxidation assay at […] nm with purified recombinant enzyme. Format: biochemical.

Consider `CC(C)c1c(C(=O)Nc2ccccc2)c(-c2ccccc2)c(-c2ccc(F)cc2)n1CC[C@@H](O)C[C@@H](O)CC(=O)O` [Atorvastatin], for which the IC50 turned out to be 300 nM.

As a reminder, the IC50 is the concentration that gives 50% inhibition.
